The series is described as follows: Stability in DTT-containing buffers (HPLC analysis). The format is physicochemical. As to conditions: confirmed by HPLC analysis. The source says: Müller, Niemeyer, et al., Schaefer & Thorn-Seshold 2025: Ideal Efficacy Photoswitching of TRPC4/5 in Tissue 1.4 Supplementary Note 4: Structural Biology and TRP Selectivity
We prepared and acquired TRPC5:E/Z-AzHC samples in one lab, and TRPC4:E/Z-AzPico independently in another, which was useful for several plausibility checks. (1) There are additional lipid densities in the pockets that are present in both TRPC4 and TRPC5, and the changes to the lipid densities in the EM maps between E and Z isomers are similar in TRPC4 and TRPC5 as well: so these changes are not dependent on protein, nature of amphipol used, or lab in which the data were obtained/processed, but are rather inherent features of the system. (2) The positions of the distal rings which are much less-well-resolved than the rest of the ligand, were independently best aligned for the E and Z isomers, and in each case found to be Z-buried vs. E-projected, which gives more confidence in this structure-based analysis. (3) Identical deleterious effects of DTT were found in each lab, and removing it removed those problems.
1.4.1 Detailed Commentary: hTRPC5:E/Z-AzHC […]
We determined high-resolution structures of hTRPC5:(E)-AzHC (2.60 Å) and hTRPC5:(Z)-AzHC (2.90 Å) without applying symmetry (Fig. 3; Supplementary Fig. 4-5 and 15-18; Supplementary […]

Turning to `Cn1c(=O)n(CCCO)c(=O)c2c1nc(Oc1ccc(N=Nc3ccccc3)c(Cl)c1)n2Cc1ccc(Cl)cc1` [AzHC], the “Stability in DTT-containing buffers” value was “degrades”.

These data come from paper PMC12858405, “Ideal efficacy photoswitching for chromocontrol of TRPC4/5 channel functions in live tissues” (Nature Chemical Biology, 2026).
